Laboratory results published in US20220169628A1 (University of Florida Research Foundation, Incorporated, priority 2019, published 2022).
Where two headings read alike, the source gives them in different places.

How the values were obtained:
Assay type in all cases: cell-based
[1] = target: Bcl-xL (Homo sapiens, UniProt Q07817); test: Protein degradation assay in MOLT-4 cells (western blot); parameters: endogenous in cells; host or cells: MOLT-4 cells; conditions: 16 h, read-out: DC50 (concentration with 50% degradation) of Bcl-xL
Sequence of Bcl-xL (Q07817 whole entry): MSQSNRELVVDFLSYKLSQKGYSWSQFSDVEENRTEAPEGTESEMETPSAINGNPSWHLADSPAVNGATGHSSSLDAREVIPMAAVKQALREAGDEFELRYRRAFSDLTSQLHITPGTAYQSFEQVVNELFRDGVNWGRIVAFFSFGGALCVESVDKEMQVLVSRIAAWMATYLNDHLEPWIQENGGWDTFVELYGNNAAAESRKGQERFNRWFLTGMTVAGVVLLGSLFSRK
Description: MOLT4 cells and human platelets were incubated with increasing concentrations of test compounds for 16 h. The cells were harvested and lysed in RIPA lysis buffer supplemented with protease and phosphatase inhibitor cocktails. An equal amount of protein (20 μg/lane) was resolved on a pre-cast 4-20% SDS-PAGE gel. Proteins were subsequently transferred to NOVEX PVDF membranes by electrophoresis. The membranes were blocked in blocking buffer (5% non-fat dry milk in TBS-T), and incubated with primary antibodies (at optimized concentrations) overnight at 4° C. After three washings in TBS-T, the membranes were incubated with an appropriate HRP-conjugated secondary antibody for 1 h at room temperature. After extensive washing for three times, the proteins of interest were detected with ECL western blotting detection reagents and recorded with autoradiography (Pierce Biotech, Rockford, Ill., USA). The primary antibodies for Bcl-xL (Cat #2762), Bcl-2 (Cat #2872), Mcl-1 (Cat #5453) and β-actin (Cat #4970) were purchased from Cell Signaling technology. The relative band intensity was measured using ImageJ software and normalized to b-actin. The DC50 (concentration with 50% degradation) was calculated using GraphPad Prism.
MOLT-4 cells and human platelets were incubated with increasing concentrations of test compounds for 16 h. The cells were harvested and lysed in RIPA lysis buffer supplemented with protease and phosphatase inhibitor cocktails. An equal amount of protein (20 μg/lane) was resolved on a pre-cast 4-20% SDS-PAGE gel. Proteins were subsequently transferred to NOVEX PVDF membranes by electrophoresis. […] After extensive washing for three times, the proteins of interest were detected with ECL western blotting detection reagents and recorded with autoradiography (Pierce Biotech, Rockford, Ill., USA). […] The relative band intensity was measured using ImageJ software and normalized to β-actin. The DC50 was calculated using GraphPad Prism.

[2] = system: MOLT-4 cells; test: Cell viability assay, MTS, 48 h, MOLT-4; conditions: for IC50: Homo sapiens, MOLT-4, 48 h
Description: (§1) Acute lymphoblastic leukemia cells (MOLT-4 and RS4; 11) or small cell lung cancer (NCI-H146 or simply H146) were incubated with increasing concentrations of Bcl-xL degraders for 48 h. Cell viability was measured by tetrazolium-based MTS assay.

[3] = system: RS4;11 cells; test: Cell viability assay, MTS, 48 h, RS4;11; conditions: for IC50: Homo sapiens, RS4-11, 48 h
Description: as §1

[4] = system: human platelets; test: Human platelet viability, 48 h; conditions: for IC50: Platelet
[5] = system: NCI-H146 cells; test: Cell viability assay, MTS, 48 h, NCI-H146; conditions: for IC50: Homo sapiens
Description: as §1

[6] = 48 h, read-out: MOLT-4 IC50 (nM, 48 h)
[7] = 48 hours, read-out: IC50 (48 hours) MOLT-4
[8] = 48 h, read-out: RS4, 11 IC50 (nM, 48 h)
[9] = 48 hours, read-out: IC50 (48 hours) RS4;11

SMILES: Cc1ncsc1-c1ccc([C@H](C)NC(=O)[C@@H]2C[C@@H](O)CN2C(=O)[C@@H](NC(=O)CCCCCCCCC(=O)NC[C@@]2(C)CCC(c3ccc(Cl)cc3)=C(CN3CCN(c4ccc(C(=O)NS(=O)(=O)c5ccc(N[C@H](CCN6CCOCC6)CSc6ccccc6)c(S(=O)(=O)C(F)(F)F)c5)cc4)CC3)C2)C(C)(C)C)cc1 [degrader #41, N1-(((S)-4′-chloro-4-methyl-6-((4-(4-(((4-(((R)-4-morpholino-1-(phenylthio)butan-2-yl)amino)-3-((trifluoromethyl)sulfonyl)phenyl)sulfonyl)carbamoyl)phenyl)piperazin-1-yl)methyl)-2,3,4,5-tetrahydro-[1,1′-biphenyl]-4-yl)methyl)-N10-((S)-1-((2S,4R)-4-hydroxy-2-(((S)-1-(4-(4-methylthiazol-5-yl)phenyl)ethyl)carbamoyl)pyrrolidin-1-yl)-3,3-dimethyl-1-oxobutan-2-yl)decanediamide]
- DC50 [1]: 101 nM
- IC50 [2, 6]: 154 nM
- IC50 [2, 7]: 150 to 500 nM
- IC50 [3, 8]: 497 nM
- IC50 [3, 9]: > 500 nM
- IC50 [4]: 10 µM
- IC50 [5]: 314 nM

SMILES: Cc1ncsc1-c1ccc([C@H](C)NC(=O)[C@@H]2C[C@@H](O)CN2C(=O)[C@@H](NC(=O)CCCCCCCCC(=O)NC[C@]2(C)CCC(c3ccc(Cl)cc3)=C(CN3CCN(c4ccc(C(=O)NS(=O)(=O)c5ccc(N[C@H](CCN6CCOCC6)CSc6ccccc6)c(S(=O)(=O)C(F)(F)F)c5)cc4)CC3)C2)C(C)(C)C)cc1 [degrader #42, N1-(((R)-4′-chloro-4-methyl-6-((4-(4-(((4-(((R)-4-morpholino-1-(phenylthio)butan-2-yl)amino)-3-((trifluoromethyl)sulfonyl)phenyl)sulfonyl)carbamoyl)phenyl)piperazin-1-yl)methyl)-2,3,4,5-tetrahydro-[1,1′-biphenyl]-4-yl)methyl)-N10-((S)-1-((2S,4R)-4-hydroxy-2-(((S)-1-(4-(4-methylthiazol-5-yl)phenyl)ethyl)carbamoyl)pyrrolidin-1-yl)-3,3-dimethyl-1-oxobutan-2-yl)decanediamide]
- DC50 [1]: 11.5 nM
- potency in killing MOLT-4 cells compared with ABT-263 ([2]; 48 h, FIG. 7): more potent
- IC50 [2, 6]: 15.2 nM
- IC50 [2, 7]: < 50 nM
- potency in killing RS4;11 cells compared with ABT-263 ([3]; 48 h, FIG. 7): more potent
- IC50 [3, 8]: 9.9 nM
- IC50 [3, 9]: < 50 nM
- effects on human platelets compared with ABT-263 ([4]; FIG. 7): substantially less effects on human platelets
- IC50 [4]: 1.09 µM
- potency in killing NCI-H146 cells compared with ABT-263 ([5]; FIG. 7): equally potent
- IC50 [5]: 45 nM
